{"source": "paper PMC10413649", "about": "(Science Advances, 2023)", "key": {"[1]": {"system": "laser-induced DNA damage sites in U2OS cells", "assay": "Laser microirradiation, GFP-PAXX and mCherry-XLF coexpressed in U2OS cells with WT or mutated Ku70", "type": "cell-based, human", "settings": "U2OS cells expressing Ku70 mutants; Fig. 5, B to E"}, "[2]": {"system": "laser-induced DNA damage sites in U2OS cells", "assay": "Laser microirradiation, GFP-PAXX recruitment in mAID-Ku70 U2OS cells with WT or mutated Ku70", "type": "cell-based, human", "settings": "mAID-Ku70 U2OS cells + IAA, Fig. 3B", "description": "We also purified three mutants of Ku70 complexed to WT Ku80 (fig. S7). […] To assess the impact of Ku70 mutations in cells, we engineered a system in U2OS cells to allow replacement of endogenous Ku70 by mutant forms of the protein (Fig. 3A). As Ku is essential for the viability of human cells, we first knocked down endogenous Ku70 expression via the constitutive expression of a short hairpin–mediated RNA (shRNA) combined with cell rescue through expression of Ku70 tagged with a mini auxin-inducible degron (mAID). This allows for rapid degradation of endogenous Ku70 upon addition of auxin [indole-3-acetic acid (IAA)] ([28]). This system permits a strong and fast Ku70 depletion, with concomitant Ku80 depletion due to reciprocal stabilization of both Ku subunits (Fig. 3A).\nThe generation of U2OS cells expressing a mAID-Ku70 in place of the endogenous protein was achieved as follows. First, U2OS cells were cotransduced with two lentiviral constructs allowing both the expression of an shRNA against Ku70 and the expression of a Ku70 protein resistant to the shRNA and fused to a mAID tag at its N terminus. The latter vector also expresses a puromycin resistance gene, enabling the selection of a transduced cell population. […]"}, "[3]": {"system": "damaged chromatin fraction of U2OS cells expressing WT or mutated Ku70", "assay": "Western blot of chromatin fractions after calicheamicin", "type": "cell-based, human", "settings": "3 nM calicheamicin for 1 hour, Fig. 3E"}, "[4]": {"system": "XLF", "assay": "Direct PAXX-XLF interaction test", "type": "binding", "settings": "tested outside the DNA-PK LR complex; method not described"}, "[5]": {"system": "mutants of Ku70 complexed to WT Ku80", "assay": "ITC, mutant Ku70 (complexed to WT Ku80) with P-KBM", "type": "binding", "settings": "three Ku70 mutants complexed to WT Ku80 (fig. S7)", "description": "DNA-PKcs and full-length His-tagged Ku70/80 were expressed and purified according to ([6]). For crystallography and ITC, the full-length Ku70/80 and a truncated version deleted of its C terminus regions called KuΔC [Ku70 (1 to 544)/Ku80 (1 to 555)], were expressed in Sf21 insect cells using a MultiBac expression system. The Ku80 subunit contains a 10xHis-tag, followed by a Tobacco Etch Virus (TEV) protease site on its N terminus. The Ku70/Ku80 heterodimer was purified according to the protocol described in ([10]). The three KuFL variants with single mutation H162A, R165E, or R517E on Ku70 subunits were expressed in insect cells and purified with the same protocol.\nInteraction between Ku-DNA complex and the different peptides (WT and variants) was measured by isothermal calorimetry using a VP-ITC machine. For ITC measurements, the full-length Ku heterodimer was used with the DNA G and F as previously used in ([14]). Before measurements, the Ku heterodimer was extensively dialyzed against buffer [20 mM tris (pH 8), 150 mM NaCl, and 5 mM β-mercaptoethanol]. The cell reaction (1.8 ml) was loaded with the preformed Ku-DNA complex at a 1:1.2 molar ratio respectively. Ku was loaded at 5 μM concentration. The syringe (300 μl) was loaded with the different peptides at different concentrations ranging between 50 and 100 μM. The Ku-DNA complex was titrated by automatic injections of 10 μl at 25°C. […]"}}}
{"compound": "GFP-PAXX: GFP-tagged PAXX construct expressed in U2OS cells", "values": [{"measurement": "recruitment of coexpressed GFP-PAXX / mCherry-XLF to DNA damage sites with Ku70 mutations", "setting": "[1]", "value": "compromised to various extents"}]}
{"compound": "WT Ku70: recombinant wild-type Ku70 used to replace degraded endogenous Ku70", "values": [{"measurement": "PAXX recruitment to microirradiated areas, restored by recombinant Ku70", "setting": "[2]; complemented with WT Ku70", "value": "restored to levels similar to those in native U2OS cells"}]}
{"compound": "PAXX: full-length PAXX, paralog of XRCC4 and XLF, 6xHis-tag, expressed in E. coli; WT protein also expressed in cells", "values": [{"measurement": "recruitment to damaged chromatin fraction, Ku70 Patch 1 or Patch 2 mutated", "setting": "[3]", "value": "not detected in damaged chromatin fraction"}, {"measurement": "direct interaction of PAXX and XLF", "setting": "[4]", "value": "did not observe a direct interaction when tested"}, {"measurement": "PAXX recruitment to damage sites under Ku depletion", "setting": "[2]; no complementation", "value": "abolished under Ku depletion conditions"}]}
{"compound": "CC[C@H](C)[C@H](NC(=O)[C@H](CC(C)C)NC(=O)[C@H](CO)NC(=O)[C@H](CCC(=O)O)NC(=O)CNC(=O)[C@@H]1CCCN1C(=O)[C@H](CS)NC(=O)[C@H](CCCNC(=N)N)NC(=O)[C@H](CCCNC(=N)N)NC(=O)[C@H](CCCNC(=N)N)NC(C)=O)C(=O)N[C@@H](CC(N)=O)C(=O)N1CCC[C@H]1C(=O)NCC(=O)N[C@@H](Cc1ccccc1)C(=O)N[C@@H](CCCCN)C(=O)N[C@@H](CO)C(=O)N[C@@H](CCCCN)C(=O)N[C@@H](CCCCN)C(=O)N1CCC[C@H]1C(=O)N[C@@H](C)C(=O)NCC(=O)NCC(=O)N[C@H](C(=O)N[C@@H](CC(=O)O)C(=O)N[C@@H](Cc1ccccc1)C(=O)N[C@@H](CC(=O)O)C(=O)N[C@@H](CCC(=O)O)C(=O)N[C@H](C(=O)O)[C@@H](C)O)C(C)C", "note": "[KBM]", "values": [{"measurement": "residual interaction of Ku70 mutants with P-KBM (ITC, words)", "setting": "[5]", "value": "no residual interaction"}]}
